Test results as given in PMC11589570, “Critical assessment of LC3/GABARAP ligands used for degrader development and ligandability of LC3/GABARAP binding pockets” (Nature Communications, 2024).
Where two headings read alike, the source gives them in different places.

Biological target: LC3B (Homo sapiens, UniProt Q9GZQ8)
Details: for CSP: LC3B:TH152 1:2

CCCCCCC(Sc1nc(Cl)cc(Nc2nc(-c3ccc(C(=O)O)cc3)cs2)n1)C(=O)O (stereo not shown) [compound 21] showed a CSP induced (G85 HN resonance, molar ratio TH152:LC3B 0.125) of 0.02291, a CSP induced (G85 HN resonance, molar ratio TH152:LC3B 0.25) of 0.03839 and a CSP induced (G85 HN resonance, molar ratio TH152:LC3B 0.5) of 0.1193. It also gave a CSP induced (G85 HN resonance, molar ratio TH152:LC3B 1) of 0.155, a CSP induced (G85 HN resonance, molar ratio TH152:LC3B 2) of 0.2522 and a CSP induced (G85 HN resonance, molar ratio TH152:LC3B 4) of 0.2665. It also gave a CSP induced (K51 HN resonance, molar ratio TH152:LC3B 0.125) of 0.02268, a CSP induced (K51 HN resonance, molar ratio TH152:LC3B 0.25) of 0.07734 and a CSP induced (K51 HN resonance, molar ratio TH152:LC3B 0.5) of 0.1341. The CSP induced (K51 HN resonance, molar ratio TH152:LC3B 1) was 0.2088, the CSP induced (K51 HN resonance, molar ratio TH152:LC3B 2) was 0.2565 and the CSP induced (K51 HN resonance, molar ratio TH152:LC3B 4) was 0.2885. For the same molecule, the CSP (LC3B residue A75) was 0.013 ppm, the CSP (LC3B residue A78) was 0.040 ppm and the CSP (LC3B residue A114) was 0.035 ppm. The CSP (LC3B residue D19) was 0.028 ppm, the CSP (LC3B residue D48) was 0.348 ppm and the CSP (LC3B residue D56) was 0.088 ppm. It also gave a CSP (LC3B residue D104) of 0.039 ppm, a CSP (LC3B residue D106) of 0.043 ppm and a CSP (LC3B residue E14) of 0.013 ppm. The CSP (LC3B residue E18) was 0.013 ppm, the CSP (LC3B residue E25) was 0.075 ppm and the CSP (LC3B residue E36) was 0.143 ppm. The CSP (LC3B residue E41) was 0.015 ppm, the CSP (LC3B residue E62) was 0.105 ppm and the CSP (LC3B residue E97) was 0.079 ppm. For the same molecule, the CSP (LC3B residue E100) was 0.117 ppm, the CSP (LC3B residue E102) was 0.024 ppm and the CSP (LC3B residue E105) was 0.037 ppm. For the same molecule, the CSP (LC3B residue E117) was 0.088 ppm, the CSP (LC3B residue F07) was 0.134 ppm and the CSP (LC3B residue F13) was 0.017 ppm. The CSP (LC3B residue F52) was 0.303 ppm, the CSP (LC3B residue F108) was 0.042 ppm and the CSP (LC3B residue F119) was 0.051 ppm. For the same molecule, the CSP (LC3B residue G40, estimated) was 0.060 ppm, the CSP (LC3B residue G107) was 0.021 ppm and the CSP (LC3B residue H27) was 0.041 ppm. The CSP (LC3B residue H57) was 0.104 ppm, the CSP (LC3B residue I23) was 0.063 ppm and the CSP (LC3B residue I31) was 0.112 ppm. The CSP (LC3B residue I34) was 0.268 ppm, the CSP (LC3B residue I35) was 0.113 ppm and the CSP (LC3B residue I64) was 0.179 ppm. It also gave a CSP (LC3B residue I66) of 0.103 ppm, a CSP (LC3B residue I67) of 0.053 ppm and a CSP (LC3B residue K08) of 0.049 ppm. For the same molecule, the CSP (LC3B residue K30) was 0.042 ppm, the CSP (LC3B residue K39) was 0.108 ppm and the CSP (LC3B residue K42) was 0.061 ppm. The CSP (LC3B residue K49) was 0.162 ppm, the CSP (LC3B residue K51) was 0.313 ppm and the CSP (LC3B residue K65) was 0.162 ppm. It also gave a CSP (LC3B residue K103) of 0.084 ppm, a CSP (LC3B residue L22) of 0.077 ppm and a CSP (LC3B residue L44) of 0.080 ppm. It also gave a CSP (LC3B residue L47) of 0.391 ppm, a CSP (LC3B residue L53) of 0.260 ppm and a CSP (LC3B residue L63) of 0.163 ppm. The CSP (LC3B residue L71) was 0.095 ppm, the CSP (LC3B residue L73) was 0.103 ppm and the CSP (LC3B residue L109) was 0.035 ppm. For the same molecule, the CSP (LC3B residue M01, estimated) was 0.020 ppm, the CSP (LC3B residue M60) was 0.042 ppm and the CSP (LC3B residue M111) was 0.134 ppm. For the same molecule, the CSP (LC3B residue N59) was 0.559 ppm, the CSP (LC3B residue N74) was 0.039 ppm and the CSP (LC3B residue N76) was 0.012 ppm. The CSP (LC3B residue P02, estimated) was 0.020 ppm, the CSP (LC3B residue P28, estimated) was 0.020 ppm and the CSP (LC3B residue P32, estimated) was 0.150 ppm. It also gave a CSP (LC3B residue P45, estimated) of 0.170 ppm, a CSP (LC3B residue P55, estimated) of 0.150 ppm and a CSP (LC3B residue Q09) of 0.00263 ppm. For the same molecule, the CSP (LC3B residue Q15) was 0.016 ppm, the CSP (LC3B residue Q26) was 0.095 ppm and the CSP (LC3B residue Q43) was 0.037 ppm. It also gave a CSP (LC3B residue Q72) of 0.019 ppm, a CSP (LC3B residue Q77) of 0.045 ppm and a CSP (LC3B residue Q116) of 0.027 ppm. The CSP (LC3B residue R10) was 0.025 ppm, the CSP (LC3B residue R11) was 0.027 ppm and the CSP (LC3B residue R16) was 0.021 ppm. The CSP (LC3B residue R21) was 0.028 ppm, the CSP (LC3B residue R24) was 0.060 ppm and the CSP (LC3B residue R37) was 0.107 ppm. It also gave a CSP (LC3B residue R68) of 0.281 ppm, a CSP (LC3B residue R69) of 0.147 ppm and a CSP (LC3B residue R70) of 0.122 ppm. For the same molecule, the CSP (LC3B residue S03, estimated) was 0.020 ppm, the CSP (LC3B residue S61) was 0.163 ppm and the CSP (LC3B residue S96) was 0.238 ppm. The CSP (LC3B residue S101) was 0.072 ppm, the CSP (LC3B residue S115) was 0.019 ppm and the CSP (LC3B residue T06) was 0.020 ppm. It also gave a CSP (LC3B residue T12) of 0.021 ppm, a CSP (LC3B residue T29) of 0.015 ppm and a CSP (LC3B residue T50) of 0.299 ppm. For the same molecule, the CSP (LC3B residue T118) was 0.045 ppm, the CSP (LC3B residue V17) was 0.022 ppm and the CSP (LC3B residue V20) was 0.018 ppm. The CSP (LC3B residue V33) was 0.194 ppm, the CSP (LC3B residue V46) was 0.270 ppm and the CSP (LC3B residue V54) was 0.190 ppm. The CSP (LC3B residue V58) was 0.313 ppm, the CSP (LC3B residue V98) was 0.081 ppm and the CSP (LC3B residue V112) was 0.337 ppm. For the same molecule, the CSP (LC3B residue Y38) was 0.061 ppm, the CSP (LC3B residue Y99) was 0.068 ppm and the CSP (LC3B residue Y110) was 0.103 ppm. For the same molecule, the CSP (LC3B residue Y113) was 0.148 ppm, the CSP induced (M111 HN resonance, molar ratio TH152:LC3B 0.125) was 0.01154 and the CSP induced (M111 HN resonance, molar ratio TH152:LC3B 0.25) was 0.02288. It also gave a CSP induced (M111 HN resonance, molar ratio TH152:LC3B 0.5) of 0.0422, a CSP induced (M111 HN resonance, molar ratio TH152:LC3B 1) of 0.08206 and a CSP induced (M111 HN resonance, molar ratio TH152:LC3B 2) of 0.1192. The CSP induced (M111 HN resonance, molar ratio TH152:LC3B 4) was 0.1287, the CSP induced (S90 HN resonance, molar ratio TH152:LC3B 0.125) was 0.02291 and the CSP induced (S90 HN resonance, molar ratio TH152:LC3B 0.25) was 0.03839. For the same molecule, the CSP induced (S90 HN resonance, molar ratio TH152:LC3B 0.5) was 0.1193, the CSP induced (S90 HN resonance, molar ratio TH152:LC3B 1) was 0.155 and the CSP induced (S90 HN resonance, molar ratio TH152:LC3B 2) was 0.2522. For the same molecule, the CSP induced (S90 HN resonance, molar ratio TH152:LC3B 4) was 0.2665, the CSP induced (V33 HN resonance, molar ratio TH152:LC3B 0.125) was 0.02123 and the CSP induced (V33 HN resonance, molar ratio TH152:LC3B 0.25) was 0.03832. It also gave a CSP induced (V33 HN resonance, molar ratio TH152:LC3B 0.5) of 0.08102, a CSP induced (V33 HN resonance, molar ratio TH152:LC3B 1) of 0.1239 and a CSP induced (V33 HN resonance, molar ratio TH152:LC3B 2) of 0.1753. For the same molecule, the CSP induced (V33 HN resonance, molar ratio TH152:LC3B 4) was 0.2006.
